From patent US20040097534A1, “Composition for the protection and regeneration of nerve cells containing berberine derivatives” (EUGENBIO INC., priority 2001, published 2004)
Where “and” joins values, the source holds several entries; their conditions need not be identical. Equal values may be shown once. Entries after “also recorded” stand apart in the source; their conditions may differ.

What was measured:
[1] = test system: neuromuscular junctions of hindlimb muscles; experiment: Regeneration of nerve endings at neuromuscular junctions after sciatic nerve crush; assay type: in vivo, white rat; settings: 4 weeks after operation, hindlimb muscle
Source text: In order to see whether berberine influences the regeneration of nerve endings in the neuromuscular junctions, 4 weeks after operation, hindlimb muscles connected to sciatic nerves were separated and cryosected. The neuromuscular junctions were stained using beta-tubulin isotypeIII and neurofilament, which are nerve markers.

[2] = test system: nerve cells in cerebral slices; experiment: Apoptosis of nerve cells induced by MK-801, TUNEL staining of cerebral slices; assay type: in vivo; settings: for apoptosis of nerve cells (TUNEL staining): berberine (5 mg/kg) alone, intraperitoneal, young white rats
Source text: All groups were intraperitoneally injected.
Experimental animals were sacrificed under anesthetization and their brains were excised. The excised brains were fixed with formalin and tissue sections were obtained. The tissue sections were stained by TUNEL method, and photographed (×1.25 and ×400) using an optical microscope (Olympus BX 50).
The number of TUNEL-positive dead nerve cells in the same area of cerebral slices of 12 rats per group was counted, and the numbers were averaged (FIG. 1).

[3] = test system: sciatic nerves; experiment: Regeneration of crushed sciatic nerves (axons, myelin sheaths); assay type: in vivo, Sprague-Dawley white rat; settings: for number of axons longer than 300 μm / number of myelin sheaths longer than 200 μm: berberine intraperitoneal
Protocol: After a Sprague-Dawley white rat (male, weighing about 200 g) was anesthetized with pentobarbital (50 mg/kg), the left sciatic nerve was exposed at the sciatic notch. Subsequently, all nerve fibers except the artery in the sciatic nerve were cut, or both sides of nerve fibers were tied using #9 blood vessel suture, and then the center of the nerve fibers were cut using iridectomy scissors. In a crush model, nerve fibers were thoroughly crushed twice using a crush clip. After nerve fibers were injured, proximal stumps and distal stumps were obtained over various time intervals (6 hours, 1 day, 3 day, 7 day, 14 day, 21 day and 28 day), respectively, before testing. For comparison, the right sciatic nerve was used as a control group.
After a white rat was anesthetized, its sciatic nerves were exposed and crushed. PBS or berberine was intraperitoneally injected into the rat. 1 week, 2 weeks and 4 weeks after suturing, nerve regeneration was observed. The rat was perfused and then sciatic nerves were obtained from the distal stump. After the obtained sciatic nerves were cryosected to a thickness of 7-10 μm, cryosected sciatic nerves were double-stained using beta-tubulin isotypeIII (cy3, red), which is an axon marker, and MBP ([…], cy2, green) antibody, which is a differentiation (myelin) marker of Schwann cells. It was observed under a confocal microscope that axons (see, Table 11) were longer than 300 μm and myelin sheaths (see, Table 12) were longer than 200 μm (see, FIGS. 13 to 15, 19a and 19b).

[4] = test system: nerve cells in CA1, dentate gyrus and entorhinal cortex; experiment: Animal model for dementia (ibotenic acid into entorhinal cortex), calbindin-positive neuron count; assay type: in vivo, rat
Protocol: After white rat brain was fixed with a stereotaxic frame, 1.5 μl (1 mg/ml) of ibotenic acid and PBS, or 1.5 μl (1 mg/ml) of berberine was injected into the entorhinal cortex region using a microinjector to prepare a model for dementia. […]
Brain was fixed with 4% paraformaldehyde and cryosected to a thickness of 40 μm, and then the cryosected brain was permeablized with 0.5% Triton X-100 for 20 minutes and blocked using 15% blocking serum for 2 hours. After reacting with anti-calbindin antibody at a temperature 4° C. for 16 hours and then further reacting with FITC-labeled secondary antibody or rhodamin (TRITC)-labeled secondary antibody for 1 hour, the cells were fixed on a slide before examining under a confocal microscope.
As an animal model for dementia, ibotenic acid was microinjected into the entorhinal cortex of adult rat brain using a stereotaxic frame.
First, an adult rat was anesthetized, and its head was fixed with a stereotaxic frame. Subsequently, 1.5 μl (1 mg/ml) of ibotenic acid was injected into the entorhinal cortex region to prepare a model for dementia, and then berberine was injected into the same site. 2 weeks after operation, brain tissue sections were counter-stained with hematocylin to examine apoptosis and protective effect. After fluorescence-staining the cells, regions used for cell count were represented as squares (FIG. 14). In addition, the cells were fluorescence-stained with calbindin antibody, a nerve-specific marker, to examine nerve cell survival (see, Tables 8 to 10, FIGS. 11 and 12).

[5] = test system: HiB5 cells; experiment: Induction of differentiation of HiB5 cells into nerve cells (neurite count, confocal); assay type: cell-based, white rat; settings: HiB5, berberine, 2 days
Protocol: Thereafter, the culture was treated with berberine and further cultured for 2 days. The cultured cells were immunostained with nerve cell-specific labeled molecule, and then the number of cells having neurites longer than cell bodies was counted under a confocal microscope. A positive control was treated with bFGF under the same condition as described above to induce the differentiation into nerve cells. In addition, the neuroregenerative effect was examined after berberine together with bFGF was treated. The differentiation degree was measured by double-staining neurites with nerve cell-specific labeled molecule (anti-neurofilament antibody) and FITC-labeled secondary antibody (green), followed by staining cell nuclei with propidium iodide (red).

[6] = test system: PC12 cells; experiment: MTT assay, PC12 survival under serum deprivation-induced stress; assay type: cell-based, rat; settings: for O.D.: 2 days; for Average (O.D. relative to RPMI): RPMI = 100%
Protocol: Cell injuries under condition of serum deprivation-induced stress and oxidative stress were measured by MTT assay. For MTT assay, Cells were seeded into N2 medium in an amount of 7.5×10^3 cells, and then a neurotoxin or a nerve growth factor was added thereto to differentiate the cells and then 0.1 volume of 4 mg/ml MTT was further added. The mixture was stored at 37° C. for 3-4 hours. After 100 μl of solubilization buffer was added to the mixture and then stored for 24 hours, O.D. values were measured by ELISA assay.
NGF, increasing cell survival and inducing cell differentiation, was used as a positive control. After the cells were treated with berberine (0.25˜3 μg/ml), the cells were cultured for 2 days to induce nerve regeneration (see, Table 3 and FIG. 5a).

[7] = Ibotenic Acid + Berberine, 2 weeks after operation
[8] = berberine injected after ibotenic acid

COc1ccc2cc3[n+](cc2c1OC)CCc1cc2c(cc1-3)OCO2 [Berberine, 7,8,13,13a-tetradihydro-9,10-dimethoxy-2,3-(methylenedioxy) berbinium]
regeneration of nerve endings / formation of neuromuscular junctions [1]: spread to all muscle fibers; also recorded: reached all muscle fibers to form neuromuscular junctions
apoptosis of nerve cells (TUNEL staining) [2]: did not induce apoptosis of nerve cells
apoptosis of nerve cells (TUNEL staining) ([2]; listed as berberine): apoptosis of nerve cells was not observed
inhibition of apoptosis of nerve cells induced by MK-801 ([2]; pretreated with berberine (5 mg/kg) for 5 days, then MK-801 (0.5 mg/kg) i.p.): considerably inhibits apoptosis of nerve cells induced by MK-801
number of myelin sheaths longer than 200 μm, increase ([3]; 1 week): doubled
effect on axonal growth and the regeneration of myelin sheaths ([3]; 1 week after operation): not great
number of axons longer than 300 μm ([3]; 1 week, PBS = 14.5): 24.6
number of myelin sheaths longer than 200 μm ([3]; 1 week, PBS = 16.5): 35
number of axons longer than 300 μm ([3]; 2 weeks, PBS = 20.5): 32.3
number of myelin sheaths longer than 200 μm ([3]; 2 weeks, PBS = 43): 88.6
number of axons (neurites) longer than 300 μm, increase ([3]; 4 weeks): doubled
number of myelin sheaths longer than 200 μm, increase ([3]; 4 weeks): 3 times
cell number (%) relative to Ibotenic Acid, CA, average ([4]; Berberine alone): 311%
cell number (%) relative to Ibotenic Acid, DG, average ([4]; Berberine alone): 204%
cell number (%) relative to Ibotenic Acid, ENT, average ([4]; Berberine alone): 225%
cell number relative to Ibotenic Acid average = 100, CA (individual animals #1-#3) ([4]; Berberine alone): 355 and 257 and 320
cell number relative to Ibotenic Acid average = 100, DG (individual animals #1-#3) ([4]; Berberine alone): 229 and 189 and 195
cell number relative to Ibotenic Acid average = 100, ENT (individual animals #1-#3) ([4]; Berberine alone): 237 and 208 and 229
cell number, CA (individual animals #1-#3) ([4]; Berberine alone): 174 and 126 and 157
cell number, CA, AVR ([4]; Berberine alone): 152.3
cell number, DG (individual animals #1-#3) ([4]; Berberine alone): 421
cell number, DG, AVR ([4]; Berberine alone): 375.3
cell number, ENT (individual animals #1-#3) ([4]; Berberine alone): 173 and 152 and 167
cell number, ENT, AVR ([4]; Berberine alone): 164
cell number (%) relative to Ibotenic Acid, CA, average ([4]; Ibotenic Acid + Berberine): 278%
cell number (%) relative to Ibotenic Acid, DG, average ([4]; Ibotenic Acid + Berberine): 190%
cell number (%) relative to Ibotenic Acid, ENT, average ([4]; Ibotenic Acid + Berberine): 126%
cell number relative to Ibotenic Acid average = 100, CA (individual animals #1-#3) ([4]; Ibotenic Acid + Berberine): 231 and 337 and 267
cell number relative to Ibotenic Acid average = 100, DG (individual animals #1-#3) ([4]; Ibotenic Acid + Berberine): 221 and 157 and 191
cell number relative to Ibotenic Acid average = 100, ENT (individual animals #1-#3) ([4]; Ibotenic Acid + Berberine): 129 and 122 and 127
cell number, CA, AVR ([4]; Ibotenic Acid + Berberine): 136.3
cell number, DG, AVR ([4]; Ibotenic Acid + Berberine): 348.7
cell number, ENT, AVR ([4]; Ibotenic Acid + Berberine): 92
cell number, CA (individual animals #1-#3) [4, 7]: 113 and 165 and 131
cell number, DG (Dentate Gyrus) (individual animals #1-#3) [4, 7]: 406 and 289 and 351
cell number, ENT (Entorhinal Cortex) (individual animals #1-#3) [4, 7]: 94 and 89 and 93
survival of calbindin-positive neurons in the entorhinal cortex [4, 8]: somewhat increased
survival rates of granule cells in the dentate gyrus regions, increase [4, 8]: doubled; also recorded: two times
survival rates of pyramidal cells in the CA1 region, increase [4, 8]: 2.5 times
number of cells differentiated into nerve cells, increase [5]: increased two times
Number of differentiated cells ([5]; N2 = 3.07): 7.87
Average (%) of differentiated cells ([5]; N2 = 14.46): 31.57%
total average cell numbers ([5]; N2 = 22.38): 26.61
O.D. ([6]; RPMI + berberine 0.25 μg/ml): 0.203
Average (O.D. relative to RPMI) ([6]; RPMI + berberine 0.25 μg/ml): 121%
O.D. ([6]; RPMI + berberine 1.5 μg/ml): 0.239
Average (O.D. relative to RPMI) ([6]; RPMI + berberine 1.5 μg/ml): 142%
O.D. ([6]; RPMI + berberine 3 μg/ml): 0.262
Average (O.D. relative to RPMI) ([6]; RPMI + berberine 3 μg/ml): 156%
cell survival rate versus control group ([6]; serum deprivation, berberine (1.5˜3 μg/ml elsewhere in the source)): 1.5 times
